Results on five compounds are retold here after patent publication US10555987B2, “GHRH agonists for the treatment of ischemic disorders” (UNIVERSITY OF MIAMI, priority 2012, dated 2020).

Molecules are shown by their SMILES. Non-standard residues stand in square brackets, D forms with d. Residues, ends and D or L forms follow the SMILES beside them. ξ: configuration not given here. *: point of attachment. Desaminotyrosyl = O=C(CCc1ccc(O)cc1)*; NMeY = CN[C@@H](Cc1ccc(O)cc1)C(=O)O; Nle = CCCC[C@H](N)C(=O)O; Orn = NCCC[C@H](N)C(=O)O; Abu = CC[C@H](N)C(=O)O; Ava = NCCCCC(=O)O; GABA = NCCCC(=O)O; ξA = CC(N)C(=O)O

Assay [1] deals with GH release. The assay is described as follows: In vivo endocrine activity, GH release after subcutaneous administration (Table 9). The settings on record: rat; for GH releasing potency relative to JI-38 (=1): subcutaneous (s.c.) injection. The method, then: Subcutaneous Administration. Adult male rats were used and anesthetized with pentobarbital (6 mg/100 g, b.w.), by i.p. injection. […] Blood samples were taken from the jugular vein 5, 15 and/or 30 minutes after the injection. The blood samples were centrifuged, plasma was removed and the GH level was measured byELISA. The results are summarized in terms of potency in Table 9.

Assay [2] deals with T1, GHRH receptor (Homo sapiens, UniProt Q02643).
T1 sequence (Q02643 23-423): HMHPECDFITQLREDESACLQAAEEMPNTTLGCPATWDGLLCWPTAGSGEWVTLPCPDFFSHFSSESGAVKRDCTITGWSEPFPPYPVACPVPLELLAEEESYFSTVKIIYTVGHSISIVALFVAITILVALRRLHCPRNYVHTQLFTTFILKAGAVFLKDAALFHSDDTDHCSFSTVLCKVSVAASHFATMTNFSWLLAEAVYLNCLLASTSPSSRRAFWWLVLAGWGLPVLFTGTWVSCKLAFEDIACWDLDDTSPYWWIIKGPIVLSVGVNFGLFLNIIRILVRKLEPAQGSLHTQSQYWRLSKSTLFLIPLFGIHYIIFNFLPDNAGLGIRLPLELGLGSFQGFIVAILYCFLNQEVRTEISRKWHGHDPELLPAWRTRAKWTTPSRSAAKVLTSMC
The assay is described as follows: GHRH receptor binding, competition with 125I-labeled JV-1-42, human pituitary membrane homogenates (Table 7). As to conditions: JI-38 = 1, Table 7. Details: Normal human pituitaries were purchased from the National Hormone and Peptide Program; tissue National Hormone and Peptide Program (A.F. Parlow, Harbor-UCLA Medical Center, Torrance, Calif.); host or cells: normal human pituitary, membrane fraction. From the text: Normal human pituitaries were purchased from the National Hormone and Peptide Program (A.F. Parlow, Los Angeles, County Harbor-UCLA Medical Center, Torrance, Calif.).

Regarding `CCCC[C@H](NC(=O)[C@@H](NC(=O)[C@H](CC(=O)O)NC(=O)[C@H](CCC(N)=O)NC(=O)[C@H](CC(C)C)NC(=O)[C@H](CC(C)C)NC(=O)[C@H](CCCN)NC(=O)[C@H](Cc1c[nH]cn1)NC(=O)[C@H](C)NC(=O)[C@H](CO)NC(=O)[C@H](CC(C)C)NC(=O)[C@H](CCC(N)=O)NC(=O)[C@H](CC)NC(=O)[C@H](CC(C)C)NC(=O)[C@@H](NC(=O)[C@H](CCCN)NC(=O)[C@H](Cc1c[nH]cn1)NC(=O)[C@H](Cc1ccc(O)cc1)NC(=O)[C@H](CO)NC(=O)[C@H](CCC(N)=O)NC(=O)[C@@H](NC(=O)[C@H](Cc1ccccc1)NC(=O)[C@@H](NC(=O)[C@H](C)NC(=O)[C@H](CC(=O)O)NC(=O)C(C)NC(=O)CCc1ccc(O)cc1)[C@@H](C)CC)[C@@H](C)O)C(C)C)[C@@H](C)CC)C(=O)N[C@@H](CC(=O)O)C(=O)N[C@@H](CCCNC(=N)N)C(=O)NC` (stereo partly shown) [Peptide P-27413, [Dat^1, Gln^8, His^11, Orn^12, Abu^15, His^20, Orn^21, Nle^27, Asp^28]hGHRH(1-29)NH—CH3] (Desaminotyrosyl-[ξA]DAIFTQSYH[Orn]VL[Abu]QLSAH[Orn]LLQDI[Nle]DR-NHMe), the “GH releasing potency relative to JI-38 (=1)” value in assay [1] (15 min after) came out at 0.36; in assay [1] (30 min after) it was 0.57. Also, the “Relative affinity (Binding potency) vs JI-38” value (“Relative affinity” below) in assay [2] amounted to 1.78.

Regarding `CCCC[C@H](NC(=O)[C@@H](NC(=O)[C@H](CC(=O)O)NC(=O)[C@H](CCC(N)=O)NC(=O)[C@H](CC(C)C)NC(=O)[C@H](CC(C)C)NC(=O)[C@H](CCCN)NC(=O)[C@H](CCCNC(=N)N)NC(=O)[C@H](C)NC(=O)[C@H](CO)NC(=O)[C@H](CC(C)C)NC(=O)[C@H](CCC(N)=O)NC(=O)[C@H](CC)NC(=O)[C@H](CC(C)C)NC(=O)[C@@H](NC(=O)[C@H](CCCN)NC(=O)[C@H](CCCNC(=N)N)NC(=O)[C@H](Cc1ccc(O)cc1)NC(=O)[C@H](CO)NC(=O)[C@H](CC(N)=O)NC(=O)[C@@H](NC(=O)[C@H](Cc1ccccc1)NC(=O)[C@@H](NC(=O)[C@H](C)NC(=O)[C@H](CC(=O)O)NC(=O)[C@@H](C)NC(=O)[C@H](Cc1ccc(O)cc1)NC)[C@@H](C)CC)[C@@H](C)O)C(C)C)[C@@H](C)CC)C(=O)N[C@@H](CO)C(=O)N[C@@H](CCCNC(=N)N)C(=O)NCCCC(N)=O` [Peptide P-25501, [N—Me-Tyr^1, D-Ala^2, Orn^12, Abu^15, Orn^21, Nle^27, Gab^30]hGHRH(1-30)NH2] (H-[NMeY][dA]DAIFTNSYR[Orn]VL[Abu]QLSAR[Orn]LLQDI[Nle]SR[GABA]-NH2), in assay [1] (s.c.), the “Stimulation of growth hormone levels after subcutaneous administration (in words)” value is “stimulated greater growth hormone levels than hGHRH or JI-38”. Further, the “GH releasing potency relative to JI-38 (=1)” value in assay [1] (5 min after) amounted to 1.40; in assay [1] (15 min after) it was 1.36; in assay [1] (30 min after), 1.63. Moreover, in assay [2], the “Relative affinity” value is 4.07.

For the compound `CCCC[C@H](NC(=O)[C@@H](NC(=O)[C@H](CC(=O)O)NC(=O)[C@H](CCC(N)=O)NC(=O)[C@H](CC(C)C)NC(=O)[C@H](CC(C)C)NC(=O)[C@H](CCCN)NC(=O)[C@H](CCCNC(=N)N)NC(=O)[C@H](C)NC(=O)[C@H](CO)NC(=O)[C@H](CC(C)C)NC(=O)[C@H](CCC(N)=O)NC(=O)[C@H](CC)NC(=O)[C@H](CC(C)C)NC(=O)[C@@H](NC(=O)[C@H](CCCN)NC(=O)[C@H](CCCNC(=N)N)NC(=O)[C@H](Cc1ccc(O)cc1)NC(=O)[C@H](CO)NC(=O)[C@H](CC(N)=O)NC(=O)[C@@H](NC(=O)[C@H](Cc1ccccc1)NC(=O)[C@@H](NC(=O)[C@H](C)NC(=O)[C@H](CC(=O)O)NC(=O)[C@H](C)NC(=O)[C@H](Cc1ccc(O)cc1)NC)[C@@H](C)CC)[C@@H](C)O)C(C)C)[C@@H](C)CC)C(=O)N[C@@H](CO)C(=O)N[C@@H](CCCNC(=N)N)C(=O)NCCCC(=O)NC` [Peptide P-27415, [N—Me-Tyr^1, Orn^12, Abu^15, Orn^21, Nle^27, Gab^30]hGHRH(1-30)NH—CH3] (H-[NMeY]ADAIFTNSYR[Orn]VL[Abu]QLSAR[Orn]LLQDI[Nle]SR[GABA]-NHMe), the results for the “GH releasing potency relative to JI-38 (=1)” value in assay [1] (15 min after) and in assay [1] (30 min after) were 0.45 and 0.41, respectively. Besides, the “Relative affinity” value in assay [2] is on record as 1.44.

Consider `CCCC[C@H](NC(=O)[C@@H](NC(=O)[C@H](CC(=O)O)NC(=O)[C@H](CCC(N)=O)NC(=O)[C@H](CC(C)C)NC(=O)[C@H](CC(C)C)NC(=O)[C@H](CCCN)NC(=O)[C@H](CCCNC(=N)N)NC(=O)[C@H](C)NC(=O)[C@H](CO)NC(=O)[C@H](CC(C)C)NC(=O)[C@H](CCC(N)=O)NC(=O)[C@H](CC)NC(=O)[C@H](CC(C)C)NC(=O)[C@@H](NC(=O)[C@H](CCCN)NC(=O)[C@H](CCCNC(=N)N)NC(=O)[C@H](Cc1ccc(O)cc1)NC(=O)[C@H](CO)NC(=O)[C@H](CCC(N)=O)NC(=O)[C@@H](NC(=O)[C@H](Cc1ccccc1)NC(=O)[C@@H](NC(=O)[C@H](C)NC(=O)[C@H](CC(=O)O)NC(=O)C(C)NC(=O)[C@H](Cc1ccc(O)cc1)NC)[C@@H](C)CC)[C@@H](C)O)C(C)C)[C@@H](C)CC)C(=O)N[C@@H](CC(=O)O)C(=O)N[C@@H](CCCNC(=N)N)C(=O)NCCCCC(N)=O` (stereo partly shown) [Peptide P-22325, [N—Me-Tyr^1, Gln^8, Orn^12, Abu^15, Orn^21, Nle^27, Asp^28, Apa^30]hGHRH (1-30)NH2] (H-[NMeY][ξA]DAIFTQSYR[Orn]VL[Abu]QLSAR[Orn]LLQDI[Nle]DR[Ava]-NH2), for which the “GH releasing potency relative to JI-38 (=1)” value amounted to 0.33 in assay [1] (5 min after), 0.68 in assay [1] (15 min after) and 1.03 in assay [1] (30 min after). The “Relative affinity” value in assay [2] came to 1.14.

Regarding `CCCC[C@H](NC(=O)[C@@H](NC(=O)[C@H](CC(=O)O)NC(=O)[C@H](CCC(N)=O)NC(=O)[C@H](CC(C)C)NC(=O)[C@H](CC(C)C)NC(=O)[C@H](CCCN)NC(=O)[C@H](CCCNC(=N)N)NC(=O)[C@H](C)NC(=O)[C@H](CO)NC(=O)[C@H](CC(C)C)NC(=O)[C@H](CCC(N)=O)NC(=O)[C@H](CC)NC(=O)[C@H](CC(C)C)NC(=O)[C@@H](NC(=O)[C@H](CCCN)NC(=O)[C@H](CCCNC(=N)N)NC(=O)[C@H](Cc1ccc(O)cc1)NC(=O)[C@H](CO)NC(=O)[C@H](CC(N)=O)NC(=O)[C@@H](NC(=O)[C@H](Cc1ccccc1)NC(=O)[C@@H](NC(=O)[C@H](C)NC(=O)[C@H](CC(=O)O)NC(=O)[C@H](CC)NC(=O)[C@H](Cc1ccc(O)cc1)NC)[C@@H](C)CC)[C@@H](C)O)C(C)C)[C@@H](C)CC)C(=O)N[C@@H](CO)C(=O)N[C@@H](CCCNC(=N)N)C(=O)NCCCC(N)=O` [Peptide P-25503, [N—Me-Tyr^1, Abu^2, Orn^12, Abu^15, Orn^21, Nle^27, Gab^30]hGHRH(1-30)NH2] (H-[NMeY][Abu]DAIFTNSYR[Orn]VL[Abu]QLSAR[Orn]LLQDI[Nle]SR[GABA]-NH2), the “GH releasing potency relative to JI-38 (=1)” value in assay [1] (5 min after) was 0.55; in assay [1] (15 min after), 0.64; in assay [1] (30 min after), 0.63. Moreover, the “Relative affinity” value in assay [2] is given as 3.67.
